In brackets after ≈: the same amount, converted by molar mass. Where a name gives a salt, the structure may show the parent alone. Read-outs that look alike come from different tables or passages of the source.
Key:
Type in all cases: cell-based
[1] = system: Staphylococcus aureus NRS384 (MRSA); test: Broth microdilution MIC, S. aureus NRS384 (MRSA); conditions: broth microdilution, 37° C., 20 hours; for MIC: Staphylococcus aureus, read-out: MIC NRS 384 (MRSA)
From the text: (§1) Bacteria tested are Staphylococcus aureus NRS384 (a methicillin-resistant Staphylococcus aureus, MRSA), Staphylococcus aureus ATCC 29213 (a methicillin-sensitive Staphylococcus aureus, MSSA), Streptococcus pneumoniae ATCC 49619, Enterococcus faecalis ATCC 29212, Enterococcus faecium ATCC 700221 (a vancomycin-resistant enterococcus, VRE), Bacillus subtilis ATCC 6633, and Escherichia coli ATCC 25922.
(§2) Staphylococcus aureus NRS384 was obtained from NARSA (Network on Antimicrobial Resistance in Staphylococcus aureus, now the strain collection is in BEI resources). Other bacterial isolates were from ATCC (The American Type Culture Collection). Upon receiving the bacteria samples from aforementioned institutes, the bacteria were cultured according to the manuals provided by the suppliers. The bacteria were stored in 25% glycerol (final concentration) at −80° C.
(§3) On the day of testing, the compounds were dissolved in pure DMSO (Sigma 276855-1L) to […] as stock. In a v-bottom 96-well plate (Axygen-wipp02280), 20 μl DMSO was added into well 2 to well 12 by manual pipetting. Into well 1, 12.8 μL of compound DMSO stock (20 mg/ml) was added and mixed with 27.2 μl DMSO by pipetting. Two fold serial dilutions were performed by transferring and mixing 20 μl of solution from well 1 to well 2, then well 2 to well 3 and so forth until well 11. The well 12 was loaded with 20 μl DMSO without compounds. This was drug ‘mother plate’. From well 1 to well 12, the drug concentrations in the mother plate were […] in DMSO. A multi-pipette was used to perform the serial dilutions. The concentration may be adjusted according to the potency of the compounds. An Echo® Acoustic liquid handling system may be used to replace manual pipetting to make the daughter plates.
(§4) One day prior to the day of MIC testing, bacterial strains were streaked out from −80° C. glycerol stocks onto MHA plates and incubated at 37° C. for 20 hours. Streptococcus pneumoniae was streaked on blood agar and incubated at 37° C. in 5% CO2. The single colonies were picked by using an inoculation loop (Greiner-731175) and suspended into 5 ml sterile saline. The turbidity of the suspension was adjusted to 0.10 (Siemens MicroScan turbidity meter), equal to ˜1.0×10^8 cfu/ml. The bacterial suspension was diluted 200× in corresponding test medium (Table 1). This was used to inoculate daughter plates.
(§5) For preparing u-bottom 96-well ‘daughter plates’ (Costar 3788), an aliquot of 1 μl solution from mother plate was then replicating transferred into the daughter plate using a multi-pipette.
(§6) An aliquot of 99 μl of the bacterial suspension was inoculated into each well of the daughter plates using a multi-pipette. Each well contained ˜5.0×10^5 cfu/ml bacteria, 1% DMSO and serially diluted compounds at 64, 32, 16, 8, 4, 2, 1, 0.5, 0.25, 0.125, 0.0625 and 0 μg/ml from well 1 to well 12 respectively, in 100 μl corresponding test medium.
(§7) The plates were incubated in ambient atmosphere and in a 37° C. incubator for 20 hours.
(§8) Compounds of the present invention were tested for antibacterial activity against a variety of bacterial organism including Bacillus subtilis, Staphylococcus aureus, Enterococcus faecalis, Enterococcus faecium, Streptococcus pneumoniae and Escherichia coli. […] Compounds described in Examples 2, 44, 53, 56, 90, 134, 212, 213, 214, 218, 222, 304, 305, and 307 had MIC of ≤1 μg/ml against S. aureus NRS 384 (MRSA) (μg/ml) and E. faecium ATCC 700221 (VRE) (μg/ml).

[2] = system: Staphylococcus aureus ATCC 29213 (MSSA); test: Broth microdilution MIC, S. aureus ATCC 29213 (MSSA); conditions: read-out: MIC S. aureus ATCC 29213 (MSSA)
From the text: as §1, §2, §3, §4, §5, §6, §7, §8

[3] = system: Enterococcus faecalis ATCC 29212; test: Broth microdilution MIC, E. faecalis ATCC 29212; conditions: read-out: MIC E. faecalis ATCC 29212
From the text: as §1, §2, §3, §4, §5, §6, §7, §8

[4] = system: Enterococcus faecium ATCC 700221 (VRE); test: Broth microdilution MIC, E. faecium ATCC 700221 (VRE); set-up: MIC E. faecium ATCC 700221 (VRE): unit: ug/mL; conditions: broth microdilution, 37° C., 20 hours; for MIC: Enterococcus faecium, read-out: MIC E. faecium ATCC 700221 (VRE)
From the text: as §1, §2, §3, §4, §5, §6, §7, §8

[5] = system: Streptococcus pneumoniae ATCC 49619; test: Broth microdilution MIC, S. pneumoniae ATCC 49619; conditions: read-out: MIC S. pneumoniae ATCC 49619
From the text: as §1, §2, §3, §4, §5, §6, §7, §8

[6] = system: Bacillus subtilis ATCC 6633; test: Broth microdilution MIC, B. subtilis ATCC 6633; conditions: read-out: MIC B. subtilis ATCC 6633
From the text: as §1, §2, §3, §4, §5, §6, §7, §8

[7] = system: Escherichia coli ATCC 25922; test: Broth microdilution MIC, E. coli ATCC 25922 (MHIIB w & w/o 4 mM EDTA); conditions: for MIC: Escherichia coli, read-out: MIC E. coli ATCC 25922; for MIC E. coli ATCC 25922 + 4 mM EDTA: with 4 mM EDTA
From the text: as §1, §2, §3, §4, §5, §6, §7, §8

[8] = broth microdilution, 37° C., 20 hours
[9] = ATCC29212, broth microdilution, 37° C., 20 hours
[10] = ATCC49619, broth microdilution, 37° C., 20 hours
[11] = ATCC6633, broth microdilution, 37° C., 20 hours
[12] = ATCC25922, without EDTA, broth microdilution, 37° C., 20 hours

Row | SMILES | MIC [1] [µg/mL] | MIC [2, 8] [µg/mL] | MIC [3, 9] [µg/mL] | MIC [4] [µg/mL] | MIC [5, 10] [µg/mL] | MIC [6, 11] [µg/mL] | MIC [7, 12] [µg/mL] | MIC E. coli ATCC 25922 + 4 mM EDTA [7, 8] [µg/mL] | MIC ([1]; S. aureus NRS 384) [µg/mL] | MIC NRS 384 (MRSA) [1] | MIC ([2]; 20 h) [µg/mL] | MIC ([3]; ATCC29212, 20 h) [µg/mL] | MIC E. faecium ATCC 700221 (VRE) [4] | MIC ([5]; ATCC49619, 20 h) [µg/mL] | MIC ([6]; ATCC6633, 20 h) [µg/mL] | MIC ([7]; ATCC25922, 20 h) [µg/mL]
1 | CN(C)CC(O)C(O)C(=O)N1CCC(n2ncc3nc(NCc4ccc(Cl)c(Cl)c4)[nH]c(=O)c32)CC1.Cl (centres unmarked) [Compound 277, 5-((3,4-dichlorobenzyl)amino)-1-(1-(4-(dimethylamino)-2,3-dihydroxybutanoyl)piperidin-4-yl)-1H-pyrazolo[4,3-d]pyrimidin-7(6H)-one hydrochloride] | 64 | > 64 | 64 | 32 | 16 | 16 | > 64 | >64 | – | – | – | – | – | – | – | –
2 | Cc1ccnc(C(=O)N2CCC(n3ncc4nc(NCc5ccc(Cl)c(Cl)c5)[nH]c(=O)c43)CC2)c1.Cl [Compound 264, 5-((3,4-Dichlorobenzyl)amino)-1-(1-(4-methylpicolinoyl)piperidin-4-yl)-1H-pyrazolo[4,3-d]pyrimidin-7(6H)-one hydrochloride] | 2 | 4 | 4 | 1 | 4 | 1 | > 64 | >64 | – | – | – | – | – | – | – | –
3 | Cn1ncc2nc(NCc3cccnc3)[nH]c(=O)c21 [Compound 5, 1-Methyl-5-(3-pyridylmethylamino)-6H-pyrazolo[4,3-d]pyrimidin-7-one] | > 64 | > 64 | > 64 | > 64 | > 64 | > 64 | > 64 | >64 | – | – | – | – | – | – | – | –
4 | O=c1[nH]c(NCc2ccc(Cl)c(Cl)c2)nc2cnn(CCCOCCO)c12 [Compound 169, 5-[(3,4-dichlorophenyl)methylamino]-1-[3-(2-hydroxyethoxy)propyl]-6H-pyrazolo[4,3-d]pyrimidin-7-one] | 8 (≈ 19.4 µM) | 8 (≈ 19.4 µM) | 8 (≈ 19.4 µM) | 4 (≈ 9.7 µM) | 8 (≈ 19.4 µM) | 2 (≈ 4.85 µM) | > 64 | >64 | – | – | – | – | – | – | – | –
5 | COc1ccnc(C(=O)N2CCC(n3ncc4nc(NCc5ccc(Cl)c(Cl)c5)[nH]c(=O)c43)CC2)c1.Cl [Compound 263, 5-((3,4-dichlorobenzyl)amino)-1-(1-(4-methoxypicolinoyl)piperidin-4-yl)-1H-pyrazolo[4,3-d]pyrimidin-7(6H)-one hydrochloride] | 2 | 4 | 4 | 1 | 2 | 1 | > 64 | >64 | – | – | – | – | – | – | – | –
6 | COCCCCCn1cc2nc(NCc3ccc(Cl)c(Cl)c3)[nH]c(=O)c2n1 [Compound 133, 5-((3,4-Dichlorobenzyl)amino)-2-(5-methoxypentyl)-2H-pyrazolo[4,3-d]pyrimidin-7(6H)-one] | > 64 | > 64 | > 64 | 64 (≈ 156 µM) | 16 (≈ 39 µM) | 8 (≈ 19.5 µM) | > 64 | >64 | – | – | – | – | – | – | – | –
7 | O=c1[nH]c(NCc2ccc(Cl)c(Cl)c2)nc2cnn(C3CCNCC3)c12 [Compound 152, 5-((3,4-dichlorobenzyl)amino)-1-(piperidin-4-yl)-1H-pyrazolo[4,3-d]pyrimidin-7(6H)-one] | 16 (≈ 40.7 µM) | 16 (≈ 40.7 µM) | 16 (≈ 40.7 µM) | 8 (≈ 20.3 µM) | 2 (≈ 5.09 µM) | 4 (≈ 10.2 µM) | > 64 | 32 | – | – | – | – | – | – | – | –
8 | O=c1[nH]c(NCc2ccc(F)c(F)c2)nc2c(F)nn(CCOCCO)c12 [Compound 301, 5-((3,4-difluorobenzyl)amino)-3-fluoro-1-(2-(2-hydroxyethoxy)ethyl)-1H-pyrazolo[4,3-d]pyrimidin-7(6H)-one] | – | 8 (≈ 20.9 µM) | 8 (≈ 20.9 µM) | 4 (≈ 10.4 µM) | 4 (≈ 10.4 µM) | 8 (≈ 20.9 µM) | > 64 | >64 | 4 (≈ 10.4 µM) | – | – | – | – | – | – | –
9 | O=c1[nH]c(NCc2ccc(Cl)c(Cl)c2)nc2cnn(C3CCN(c4ccncc4)CC3)c12 [Compound 162, 5-((3,4-dichlorobenzyl)amino)-1-(1-(pyridin-4-yl)piperidin-4-yl)-1H-pyrazolo[4,3-d]pyrimidin-7(6H)-one dihydrochloride] | – | – | – | – | – | – | – | 8 | – | 2/4 | 4 | 4 | 2/2 | 2 | 1 | > 64
10 | Cl.O=C([C@@H]1C[C@@H](O)CN1)N1CCC(n2ncc3nc(NCc4ccc(Cl)c(Cl)c4)[nH]c(=O)c32)CC1 [Compound 274, 5-((3,4-dichlorobenzyl)amino)-1-(1-((2S,4R)-4-hydroxypyrrolidine-2-carbonyl)piperidin-4-yl)-1H-pyrazolo[4,3-d]pyrimidin-7(6H)-one hydrochloride] | 64 | 32 | 64 | 16 | 16 | 16 | > 64 | >64 | – | – | – | – | – | – | – | –

Reference: patent publication US10723741B1, “DNA polymerase IIIC inhibitors and use thereof” (Acurx Pharmaceuticals, LLC, priority 2018, dated 2020)
